From paper PMC12299847, “Macroalgae-Inspired Brominated Chalcones as Cosmetic Ingredients with the Potential to Target Skin Inflammaging” (Marine Drugs, 2025) come the findings set out here.

As usually defined, the IC50 is the concentration that gives 50% inhibition. The term fold induction denotes the signal under treatment as a multiple of the control signal.

Data set [1] deals with NO production in LPS-stimulated RAW 264.7 macrophages. In words: NO production (Griess assay) in LPS-stimulated macrophages. In kind it is cell-based, murine. The note with it: Mus musculus, RAW264.7, 24 h, RAW 264.7, LPS 100 ng/mL, Griess. Here is the method:
The anti-inflammatory potential of chalcones 1–7 was evaluated in macrophages cultured in the presence or absence (control) of LPS, as depicted in Figure 4. Under basal conditions (unstimulated, control), macrophages produce low levels of nitrites (≈12%). […] Each chalcone was tested at concentrations previously established as non-cytotoxic in macrophages, trying to ensure that observed changes in NO levels were not due to reduced cell viability.
The production of NO was evaluated by measuring nitrite accumulation in culture supernatants using the previously described Griess assay. Cells were seeded at a concentration of 5.0 × 10^4 cells/mL in a 96-well plate (200 μL/well) and allowed to stabilize overnight at 37 °C. Afterwards, the cells were treated with different concentrations of compound solutions and pre-incubated for 1 h at 37 °C. Subsequently, an LPS in PBS solution was added to each well, achieving a final concentration of 100 ng/mL, and the plate was left to incubate for 24 h. An amount of 150 μL of the cell culture supernatant was then transferred to a fresh 96-well plate, and an equal amount of Griess reagent [comprising a 1:1 mixture of 1% (w/v) sulphanilamide in 5% (v/v) phosphoric acid and 0.1% (w/v) naphthylethylenediaminedihydrochloride] was added. Following a 30 min incubation at room temperature in the dark, the absorbance was recorded at 550 nm using a Biotek Synergy HT plate reader (Biotek, CA, USA). The nitrite concentration in the supernatants was determined by comparing the absorbance of each sample to a sodium nitrite standard curve. The results, obtained from at least three independent experiments performed in duplicate, were expressed as a percentage of NO production by cells versus chemical concentration, relative to LPS condition (100%).
Figure 4 NO production by macrophages treated with LPS (100 ng/mL) or not (control) in the presence of chalcones 1–7. Results are expressed as a percentage of NO production by cells treated with LPS (100 ng/mL). Each value represents the mean ± SEM of four independent experiments in duplicate. Statistical analysis: one ANOVA with Dunnett’s multiple comparisons test, where p< 0.05 was considered significant. *** p < 0.005, relative to the control, and ^# p < 0.05, ^## p < 0.01, ^### p < 0.0005, and ^#### p < 0.0001, relative to LPS condition.

A further data set relates to Nrf2. In words: KeratinoSens assay, Nrf2 luciferase reporter. The note with it: 24 h, compared to vehicle (DMSO). Format: cell-based, human. The method, then: The KeratinoSens™ assay was originally developed to assess the skin sensitization potential of Nrf2 activation, but it has also been utilized to evaluate the ability of natural compounds to induce this transcription factor [46, 47]. In this study, we assessed the capacity of chalcones 1 and 2 to activate Nrf2 after 24 and 48 h (Figure 8A–F).
(§1) Selected compounds (chalcones 1 and 2), and the positive control, DMF, were dissolved in sterile DMSO. Intermediate dilutions were prepared in culture medium, including the final concentration to be added to the 96-well plate, with a final volume of 200 µL per well. The KeratinoSens™ assay was conducted as previously described. In brief, cells were seeded at a density of 10,000 cells per well in 96-well white opaque plates (Greiner Bio-One GmbH, cat. no. 655083, Kremsmünster, Austria) and incubated for 24 h. The medium was then replaced with fresh medium containing 1% FBS and the test compounds, and cells were incubated for an additional 24 and 48 h. DMF was used as the positive control since it is a known Nrf2 activator. Cell viability was assessed in the same cells using resazurin. After 20 or 44 h of exposure to the test compounds, 50 µM of resazurin solution (in sterile PBS) was added to each well, and the plates were incubated for 4 h at 37 °C, 5% CO2 Following the resazurin incubation, the supernatant was transferred to a transparent 96-well plate, and absorbance was measured at 570 and 620 nm using a Synergy HT multi-mode microplate reader (BioTek, Bad Friedrichshall, Germany). To measure luciferase activity, cells in the white opaque 96-well plates were washed with 1× PBS. An equal volume of 1× PBS and lysis buffer (One-GLO Luciferase, cat. no. E6130, Promega, Madison, WI, USA) was added to the wells, and the plates were incubated for 20 min at room temperature. Luminescence was then measured using a FLUOstar OMEGA Microplate Reader (BMG Labtech GmbH, Ortenberg, Germany).
Figure 8 Nrf2 activation using the KeratinoSens™ assay in HaCaT cells transfected with an Nrf2 luciferase reporter construct, incubated for 24 h (A–C) or 48 h (D–F) with chalcones 1 and 2. DMF was used as a positive control. Data represent the results from four independent experiments. Non-linear regression analysis was performed using GraphPad Prism v.9.0.0 for Windows. The blue line represents the results of cell viability (% regarding the control) and the green line represents fold induction. Statistical analysis: one ANOVA with Dunnett’s multiple comparisons test, where significance includes. * p < 0.05, ** p < 0.01, *** p < 0.0005, and **** p < 0.0001.
(In general: A reporter such as luciferase makes a cellular process visible.)

The subject of data set [2] is HaCaT cells transfected with an Nrf2 luciferase reporter construct. In words: Cell viability (resazurin) in KeratinoSens cells. In kind it is cell-based, human. The method, then:
as §1, with “Germany). […]” for “Germany). To measure luciferase activity, cells in the white opaque 96-well plates were washed with 1× PBS. An equal volume of 1× PBS and lysis buffer (One-GLO Luciferase, cat. no. E6130, Promega, Madison, WI, USA) was added to the wells, and the plates were incubated for 20 min at room temperature.”, “Germany). […]” for “Germany).”
(Resazurin is reduced to fluorescent resorufin, in cell work by metabolically active cells.)

On to `COc1cc(Br)c(/C=C/C(=O)c2cc(OC)c(OC)cc2Br)cc1OC` [Chalcone 1], for which, in data set [1], the half-maximal inhibitory concentration (IC50) stood at 580 ± 120 nM. Moreover, in the data set with Nrf2 (7.5 µM), the “Nrf2 mean fold induction” value stood at 3.49 fold. Moreover, in the data set with Nrf2 (Homo sapiens, 5 µM), the fold induction at 5 µM amounted to 3.18. Moreover, the fold induction at 7.5 µM in the data set on Nrf2 (Homo sapiens, 7.5 µM) is around 3.5. Further, the “effect on cell viability” value is reported as “without affecting cell viability” in data set [2] (24 h, 5 µM and 7.5 µM); “decrease in cell viability” in data set [2] (48 h).
